# Data taken from patent US20150174144A1, “TETRACYCLINE COMPOUNDS FOR TREATING NEURODEGENERATIVE DISORDERS” (PARATEK PHARMACEUTICALS, INC., priority 2012, published 2015).
# Values joined by “and” are separate entries in the source; they are usually repeats but may differ in a detail not shown here. Equal values may be shown once. Read-outs that look alike come from different tables or passages of the source. Marks after values point to notes of the source that are not given here.
# What was measured:
# MBP-induced EAE = experiment: MBP-induced Lewis rat EAE; assay type: in vivo; conditions: i.p. daily from day 9
# Text: The inhibitory activity of Compound 1 was characterized in both mouse and rat models of EAE. Mice were immunized s.c. with myelin oligodendrocyte glycoprotein (MOG) peptide 35-55 in CFA and later injected i.v. with Pertussis toxin. Mice were randomized at day 10 and given compound i.p. Compounds were subsequently administered daily and the animals assessed for clinical score. Mice were scored as follows: 0=no disease; 1=limp tail; 2=paralysis of one or both hind limbs; 4=paralysis of both hind- and forelimbs. […] Rats were dosed daily i.p. with compound starting day 9. Rats were scored daily and cumulative scores were determined by adding the average daily scores over the experimental period. […] The average daily scores+/−SEM and the cumulative average scores are shown. Cumulative average scores were determined by adding the average daily scores over the experimental period.
# [1] = tested on: cuprizone-induced demyelination; experiment: Mouse model of cuprizone-induced demyelination; assay type: in vivo, C57BL/6 female mice
# Description: Compound 1 was tested in the mouse model of cuprizone-induced demyelination to determine the protective effects of Compound 1. The general protocol for cuprizone model demyelination is as follows:
# C57BL/6 female mice at 7-8 weeks old were fed a cuprizone diet (7012, 0.2% cuprizone mixed in standard pellet rodent chow purchased from Harlan Teklad, Indianapolis, Ind., USA) for 5 weeks. The cuprizone food was changed every two days and given ad libitum along with water. An additional group of mice was fed normal chow for 5 weeks to serve as a no cuprizone control.
# Animals were dosed intraperitoneally (i.p.) once daily based on body weight with Compound 1 (25 mg/kg, 10 mL/kg in saline), minocycline positive control (25 mg/kg, 10 mL/kg in saline) or saline sham starting on the day of cuprizone diet initiation (day 0) and continuing until day of harvest.
# At 3, 4, and 5 weeks of cuprizone feeding, ten mice from each group were euthanized by CO2 asphyxiation and decapitation and the brains were harvested and fixed in 10% buffered neutral formalin.
# Postfixed brains were paraffin embedded and 8-12 μm serial sections of the brain between the septostriatal and rostral diencephalon were prepared for luxol fast blue periodic acid-Schiff base (LFB-PAS) staining (demyelination). Both medial and lateral demyelination of the corpus callosum was determined.
# Demyelination scores for the medial corpus callosum ranged from 0 to 4 (0=fully myelinated, 1=<⅓ demyelination in the center of the medial corpus callosum, 2=<⅔ demyelination in the center of the corpus callosum, 3=no myelin in the center of corpus callosum and 4=demyelination extending to the arch of the medial corpus callosum). Demyelination in the lateral corpus callosum was scored on weeks 4 and 5 and ranged from 0 to 3 (0=normal myelination and 3=complete demyelination). Demyelination was scored 2-3 times for at least 2 brain sections.
# Axon loss in the medial corpus callosum was determined on additional serial sections of brain using Bielschowsky silver staining. Axon loss in the medial corpus callosum was scored from 0-4 (0=normal number of axons to 4=complete axon loss) at 3, 4 and 5 weeks. Slides were scored by two technicians who were blinded to the treatment groups.
# [2] = tested on: LPS-induced TNFα production by RAW 264.7 macrophages; experiment: TNFα production assay, LPS-activated RAW 264.7 macrophages; assay type: cell-based; conditions: Mus musculus, RAW264.7
# Description: Compound 1 was tested to determine specific anti-inflammatory characteristics. In vitro assays to assess the inhibition of substrate cleavage by matrix metalloproteinase 9 (MMP-9) and the inhibition of TNFα production by lipopolysaccharide (LPS)-activated macrophages were performed. MMP-9 activity was determined by fluorescence after incubation of recombinant MMP-9 with fluorescein-conjugated DQ gelatin for 90 min. TNFα production was determined by incubation of 10 ng/ml LPS with RAW264.7 macrophage cells for 24 h, followed by quantitation of TNFα in culture supernatant by ELISA.
# (§1) The RAW 264.7 mouse macrophage cell line was grown to confluence in DMEM medium containing 10% fetal bovine serum (FBS). Cells were harvested into single-cell suspensions, seeded into 96-well plates at 1-2×10^5 cells/well (200 μL volume) and incubated (5% CO2, 37° C.) overnight. Compounds were added to the cells at final concentrations ranging from 50 to 1 μM and pre-incubated for 30 min. Lipopolysaccharide (LPS) was added to the cells at a final concentration of 10 ng/ml. After incubation for 20 hr, culture supernatants were harvested and transferred to a new 96-well plate. Levels of LPS-induced TNFα in the supernatants were quantified by ELISA (R & D Systems) with supernatants from unstimulated cells serving as a negative control.
# [3] = tested on: LPS-induced production of NO by J774A.1 macrophages; experiment: NO production assay, LPS-activated J774A.1 macrophages; assay type: cell-based; conditions: Mus musculus, J774.A1; 10 ng/ml LPS, 20 hr
# Description: as §1, with “J774A.1” for “RAW 264.7”, “suspensions (by incubation on ice and agitation),” for “suspensions,”, “1×10^5” for “1-2×10^5”, “1 hr.” for “30 min.”, “NO” for “TNFα”, “Greiss reagent (Active Motif)” for “ELISA (R & D Systems)”
# [4] = tested on: ferric iron-induced lipid peroxidation among rat brain tissue; experiment: Ferric iron-induced lipid peroxidation in rat brain tissue; assay type: biochemical
# Description: Tetracycline compounds were tested in an in vitro assay of ferric iron-induced lipid peroxidation among rat brain tissue.
# CYP450 = CYP450 inhibition or induction; assay type: in vitro ADME; conditions: pre-clinical ADME studies
# E. coli = experiment: Antibacterial activity, E. coli MIC; assay type: cell-based; conditions: Escherichia coli; Table 8
# [5] = Lateral Corpus Callosum, Week 4, 25 mg/kg/d i.p.
# [6] = Lateral Corpus Callosum, Week 5, 25 mg/kg/d i.p.
# [7] = Medial Corpus Callosum, Week 3, 25 mg/kg/d i.p.
# [8] = Medial Corpus Callosum, Week 4, 25 mg/kg/d i.p.
# [9] = Medial Corpus Callosum, Week 5, 25 mg/kg/d i.p.
# [10] = 10 ng/ml LPS, 20 hr, read-out: TNFα Production (RAW264.7) IC50
# [11] = Table 4, unit inferred, read-out: TNFα production (RAW264.7)
Structure (SMILES),"Effect on clinical course of EAE (onset, maximum disease severity) (MBP-induced EAE)","% Inhibition Demyelination [1, 5]","% Inhibition Demyelination [1, 6] [%]","% Inhibition Axon Loss [1, 7]","% Inhibition Demyelination [1, 7] [%]","% Inhibition Axon Loss [1, 8] [%]","% Inhibition Demyelination [1, 8] [%]","% Inhibition Axon Loss [1, 9] [%]","% Inhibition Demyelination [1, 9] [%]","IC50 [2, 10] [µM]","IC50 [2, 11] [µM]",IC50 [3] [µM],Lipid peroxidation (% of Control) ([4]; 1.0 μM),Lipid peroxidation (% of Control) ([4]; 10 μM),Lipid peroxidation (% of Control) ([4]; 100 μM),Effects in CYP450 inhibition or induction (CYP450),MIC (E. coli) [µg/mL],"% Inhibition Demyelination ([1]; Lateral Corpus Callosum, Week 4, 25 mg/kg/d i.p., listed as minocycline) [%]"
CCc1cc(N(C)C)c2c(c1O)C(=O)C1=C(O)[C@]3(O)C(=O)C(C(N)=O)=C(O)[C@@H](N(C)C)[C@@H]3C[C@@H]1C2 [Compound 1],both delayed the onset and inhibited the maximum disease severity more potently than minocycline,62%,29,62% and 66* %,70,41,13,3,−11,10.9 ± 1.6,10.9 ± 1.6,30,92 % of Control,68 % of Control,56 % of Control,no significant effects,> 64,
"CN(C)c1ccc(O)c2c1C[C@H]1C[C@H]3[C@H](N(C)C)C(O)=C(C(N)=O)C(=O)[C@@]3(O)C(O)=C1C2=O [Minocycline, minocycline, reference compound]",,63* %,25,29%,31,30,17,−10,12,47,47,46 ± 2.1,,,,,1,63
